In the NIST ThermoML archive (doi:10.1016/j.jct.2016.12.036):
Numbers after ± are expanded uncertainties. Each block holds one molecule with its values, some of them ahead of it.

Experiments:
[1] = 298.15 K, 81.5 kPa, Liquid; for viscosity: Capillary tube (Ostwald / Ubbelohde) method; for mass density: Vibrating tube method
[2] = refractive index (Na D-line) (dimensionless); details: 298.15 K; 81.5 kPa; Liquid; Standard Abbe refractometry
[3] = excess molar enthalpy (molar enthalpy of mixing); xn = mol fraction of the nth substance listed; details: 298 K, 81.5 kPa, Liquid, Isoperibol calorimetry

SMILES: CCCCO [butan-1-ol]
- viscosity [1]: 2.572 ± 0.055 mPa·s
- mass density [1]: 806 ± 1 kg/m3
- refractive index [2]: 1.3967 ± 0.001

SMILES: CCC(C)O (stereo not given) [butan-2-ol]
- viscosity [1]: 3.05 ± 0.067 mPa·s
- mass density [1]: 802.5 ± 1 kg/m3
- refractive index [2]: 1.3945 ± 0.0011

SMILES: NCCN [ethane-1,2-diamine]
- viscosity [1]: 1.385 ± 0.029 mPa·s
- mass density [1]: 892.8 ± 1 kg/m3
- refractive index [2]: 1.4537 ± 0.0011

SMILES: NCCN [ethane-1,2-diamine] + CC(C)O
- excess molar enthalpy ([3]; x1 = 0.1001): -0.209 ± 0.00263 kcal/mol
- excess molar enthalpy ([3]; x1 = 0.2): -0.372 ± 0.00478 kcal/mol
- excess molar enthalpy ([3]; x1 = 0.3007): -0.462 ± 0.00574 kcal/mol
- excess molar enthalpy ([3]; x1 = 0.4033): -0.478 ± 0.00598 kcal/mol
- excess molar enthalpy ([3]; x1 = 0.5073): -0.435 ± 0.0055 kcal/mol
- excess molar enthalpy ([3]; x1 = 0.5963): -0.363 ± 0.00454 kcal/mol
- excess molar enthalpy ([3]; x1 = 0.6988): -0.275 ± 0.00359 kcal/mol
- excess molar enthalpy ([3]; x1 = 0.7998): -0.179 ± 0.00232 kcal/mol
- excess molar enthalpy ([3]; x1 = 0.8998): -0.0844 ± 0.0012 kcal/mol

SMILES: NCCN [ethane-1,2-diamine] + CCC(C)O
- excess molar enthalpy ([3]; x1 = 0.0999): -0.204 ± 0.00263 kcal/mol
- excess molar enthalpy ([3]; x1 = 0.1999): -0.369 ± 0.00454 kcal/mol
- excess molar enthalpy ([3]; x1 = 0.3009): -0.461 ± 0.00574 kcal/mol
- excess molar enthalpy ([3]; x1 = 0.4025): -0.473 ± 0.00598 kcal/mol
- excess molar enthalpy ([3]; x1 = 0.5055): -0.424 ± 0.00526 kcal/mol
- excess molar enthalpy ([3]; x1 = 0.6098): -0.338 ± 0.0043 kcal/mol
- excess molar enthalpy ([3]; x1 = 0.6982): -0.237 ± 0.00311 kcal/mol
- excess molar enthalpy ([3]; x1 = 0.7999): -0.143 ± 0.00189 kcal/mol
- excess molar enthalpy ([3]; x1 = 0.9): -0.0601 ± 0.000908 kcal/mol

SMILES: NCCN [ethane-1,2-diamine] + CCCCO
- excess molar enthalpy ([3]; x1 = 0.1003): -0.275 ± 0.00359 kcal/mol
- excess molar enthalpy ([3]; x1 = 0.2002): -0.486 ± 0.00598 kcal/mol
- excess molar enthalpy ([3]; x1 = 0.3011): -0.594 ± 0.00741 kcal/mol
- excess molar enthalpy ([3]; x1 = 0.4024): -0.6 ± 0.00741 kcal/mol
- excess molar enthalpy ([3]; x1 = 0.5053): -0.535 ± 0.00669 kcal/mol
- excess molar enthalpy ([3]; x1 = 0.6097): -0.428 ± 0.00526 kcal/mol
- excess molar enthalpy ([3]; x1 = 0.6983): -0.312 ± 0.00406 kcal/mol
- excess molar enthalpy ([3]; x1 = 0.8): -0.192 ± 0.00239 kcal/mol
- excess molar enthalpy ([3]; x1 = 0.8999): -0.0853 ± 0.00122 kcal/mol

SMILES: NCCN [ethane-1,2-diamine] + CCCO
- excess molar enthalpy ([3]; x1 = 0.1): -0.307 ± 0.00406 kcal/mol
- excess molar enthalpy ([3]; x1 = 0.199): -0.529 ± 0.00669 kcal/mol
- excess molar enthalpy ([3]; x1 = 0.3043): -0.65 ± 0.00813 kcal/mol
- excess molar enthalpy ([3]; x1 = 0.4066): -0.66 ± 0.00813 kcal/mol
- excess molar enthalpy ([3]; x1 = 0.5106): -0.594 ± 0.00741 kcal/mol
- excess molar enthalpy ([3]; x1 = 0.5944): -0.507 ± 0.00621 kcal/mol
- excess molar enthalpy ([3]; x1 = 0.697): -0.387 ± 0.00478 kcal/mol
- excess molar enthalpy ([3]; x1 = 0.7983): -0.254 ± 0.00335 kcal/mol
- excess molar enthalpy ([3]; x1 = 0.8996): -0.121 ± 0.00167 kcal/mol

SMILES: NCCN [ethane-1,2-diamine] + CCO
- excess molar enthalpy ([3]; x1 = 0.1003): -0.354 ± 0.00454 kcal/mol
- excess molar enthalpy ([3]; x1 = 0.201): -0.6 ± 0.00741 kcal/mol
- excess molar enthalpy ([3]; x1 = 0.301): -0.72 ± 0.00884 kcal/mol
- excess molar enthalpy ([3]; x1 = 0.4042): -0.735 ± 0.00908 kcal/mol
- excess molar enthalpy ([3]; x1 = 0.4958): -0.688 ± 0.0086 kcal/mol
- excess molar enthalpy ([3]; x1 = 0.5987): -0.584 ± 0.00717 kcal/mol
- excess molar enthalpy ([3]; x1 = 0.7006): -0.452 ± 0.00574 kcal/mol
- excess molar enthalpy ([3]; x1 = 0.8007): -0.305 ± 0.00382 kcal/mol
- excess molar enthalpy ([3]; x1 = 0.8987): -0.153 ± 0.00208 kcal/mol

Other lines, results leading:

- excess molar enthalpy ([3]; x1 = 0.0995): -0.486 ± 0.00621 kcal/mol
- excess molar enthalpy ([3]; x1 = 0.1972): -0.831 ± 0.0103 kcal/mol
- excess molar enthalpy ([3]; x1 = 0.295): -1.01 ± 0.0124 kcal/mol
- excess molar enthalpy ([3]; x1 = 0.3909): -1.05 ± 0.0129 kcal/mol
- excess molar enthalpy ([3]; x1 = 0.4934): -0.976 ± 0.012 kcal/mol
- excess molar enthalpy ([3]; x1 = 0.5948): -0.834 ± 0.0103 kcal/mol
- excess molar enthalpy ([3]; x1 = 0.6953): -0.655 ± 0.00813 kcal/mol
- excess molar enthalpy ([3]; x1 = 0.7971): -0.449 ± 0.00574 kcal/mol
- excess molar enthalpy ([3]; x1 = 0.8994): -0.225 ± 0.00311 kcal/mol
SMILES: NCCN [ethane-1,2-diamine] + CO

- viscosity [1]: 1.093 ± 0.023 mPa·s
- mass density [1]: 785.2 ± 1 kg/m3
- refractive index [2]: 1.3588 ± 0.001
SMILES: CCO [ethanol]

- viscosity [1]: 0.573 ± 0.012 mPa·s
- mass density [1]: 786.7 ± 1 kg/m3
- refractive index [2]: 1.3263 ± 0.0011
SMILES: CO [methanol]

- viscosity [1]: 1.943 ± 0.041 mPa·s
- mass density [1]: 799.5 ± 1 kg/m3
- refractive index [2]: 1.3825 ± 0.001
SMILES: CCCO [propan-1-ol]

- viscosity [1]: 2.067 ± 0.044 mPa·s
- mass density [1]: 781 ± 1 kg/m3
- refractive index [2]: 1.3745 ± 0.0011
SMILES: CC(C)O [propan-2-ol]
